{
  "source": "patent US11478440B2",
  "about": "“Combination of Elafibranor or derivatives thereof with an anti-NASH, anti-fibrotic or anti-cholestatic agent” (GENFIT, priority 2017, dated 2022)",
  "key": {"[1]": {"test_system": "TGFβ1-induced hHSC", "assay": "α-SMA ELISA in TGFβ1-induced human primary hepatic stellate cells", "type": "cell-based", "procedure": "(§1) The human primary hepatic stellate cells (hHSC) (Innoprot) were cultured in STeCM medium (ScienCell cat #5301) that was supplemented with 2% fetal bovine serum (FBS, ScienCell cat #0010), 1% penicillin/streptomycin (ScienCell cat #0503) and stellate cell growth supplement (SteCGS; ScienCell cat #5352). Cell culture flasks were coated with Poly-L Lysine (Sigma cat #P4707) for a better adherence.\nFor these experiments, a checkerboard matrix was generated. ELA and component (ii) stocks were serially diluted in DMSO in 5-points series in a row (ELA) and a 11-points series in a column (component (ii)) of a 96-well plate. Subsequently, the 5×11 combination matrix was generated by 1:1 mixing of all single agent concentrations. The test concentrations for each compound were chosen based on the respective IC50 of each compound as single agent obtained by measuring α-SMA content in the HSC model stimulated with TGF-β1.\nThe human primary hepatic stellate cells (hHSC) (Innoprot) were cultured under standard conditions, as described above. The cells were subsequently plated at a density of 2×10^4 cells/well into 96-well plates for the measure of α-SMA by ELISA. The next day, cell-culture medium was removed, and cells were washed with PBS (Invitrogen cat #14190). hHSC were deprived for 24 hours in serum-free and SteCGS-free medium. For the treatments with ELA, component (ii) and the respective ELA/component (ii) combinations, the serum-deprived hHSC were preincubated for 1 hour with the compounds followed by addition of the profibrogenic stimuli TGF-β1 (PeproTech cat #100-21, 1 ng/mL) in serum-free and SteCGS-free medium for an additional 48 hour period.\nThe level of α-SMA was measured using a Sandwich ELISA. Briefly, the wells of an ELISA plate were first coated with the capture antibody (mouse monoclonal anti-ACTA2, Abnova) at 4° C. overnight. After 3 washes in PBS+0.2% Tween 20, a blocking solution consisting of PBS+0.2% BSA was added for one hour followed by another washing cycle. The cell lysates were transferred into the wells for binding to the capture antibody for a period of 2 h at room temperature. After the washing procedure, the detection antibody (biotinylated mouse monoclonal anti-ACTA2, Abnova) was added for 2 hours at room temperature followed by 3 washes. For the detection, an HRP-conjugated Streptavidin (R&D Systems cat #DY998) was first applied for 30 min at room temperature. After washing, the HRP substrate TMB (BD, #555214) was added and incubated for 7 min at room temperature in the dark. Upon oxidation, TMB forms a water-soluble blue reaction product that becomes yellow with addition of sulfuric acid (solution stop), enabling accurate measurement of the intensity at 450 nm using a spectrophotometer. The developed color is directly proportional to the amount of α-SMA present in the lysate.\nas §1, with “Cell-culture” for “Cell culture”\nFor these experiments, a checkerboard matrix was generated. CVC and Elafibranor stocks were serially diluted in DMSO in a 5-points series in a row (Elafibranor) and a 6-points series in a column (Cenicriviroc) of a 96-well plate. Subsequently, the […] combination matrix was generated by 1:1 mixing of all single agent concentrations. The test concentrations for each compound were chosen based on the respective IC50 of each compound as single agent obtained by measuring α-SMA content in the HSC model stimulated with TGF-β1.\nThe human primary hepatic stellate cells (hHSC) (Innoprot) were cultured under standard conditions, as described above. […]"}, "[2]": {"test_system": "mice with NASH (CDFF-fed mice)", "assay": "Mouse fibrosing-NASH model (CDFF diet, 8 weeks)", "type": "in vivo, C57Bl/6J mice", "procedure": "The preventive effects of the combinations of elafibranor with selonsertib, GKT-831 or GS-0976 were assessed in mice fed a choline-deficient, […] diet (CDAA) supplemented with 2% cholesterol, 30% milk fat diet and high fructose corn syrup 55 (55% fructose/45% glucose for a final concentration of 42 g/L) in drinking water (Mells et al J Nutr Biochem 2015) (CDFF diet). 5-6 weeks old male C57Bl/6J mice were fed a control (CSAA) diet (n=4), CDFF (n=12), or CDFF supplemented with elafibranor (1 or 3 mg/kg/day), selonsertib (30 mg/kg/day), GKT-831 ([…]) alone or in combination (n=8 per group) for 8 weeks.\nThe body weight, the food and water intake were monitored twice per week. On the last day of treatment, plasma samples were obtained from retro-orbital blood sampling and mice were sacrificed after a 6 h-fasting period. The liver was rapidly excised for biochemical and histological analyses. All animal procedures were performed according to standard protocols and in accordance with the standard recommendations for the proper care and use of laboratory animals.\nThe liver slices were fixed in a formalin 4% solution. Then, the liver pieces were washed 30 minutes in PBS, and dehydrated in ethanol solutions (successive baths at 70, 80, 95 and 100% ethanol). The liver pieces were incubated in three different baths of Xylene (Honeywell cat #534056), followed by two baths in liquid paraffin (59° C.). Liver pieces were then put into racks that were gently filled with HISTOWAX to completely cover the tissue.\nLiver sections were deparaffinized, rehydrated and incubated for 3 minutes in Mayer's Hematoxylin (Microm, cat #F/C0303). Then, the liver sections were rinsed in water and incubated 1 minute in a Eosin Y 0.5% alcoholic (VWR, cat #1.02439.0500) and Erythrosin 0.5% solution (VWR, cat #1.15936.0010), and rinsed in with ethanol. Sections were then incubated for 2 minutes in Safranin, and were eventually dehydrated and mounted using the CV Mount medium (Leica, cat #046430011).\n(§2) Liver sections were deparaffinized, rehydrated and incubated for 15 minutes in a solution of Fast Green FCF 0.1% (Sigma-Aldrich, cat #F7258) before rinsing in a bath of 0.5% acetic acid (Panreac, cat #131008.1611). Then, the liver sections were rinsed in water and incubated 30 minutes in a solution of 0.1% sirius red (Direct Red 80, Fluka cat #43665) in saturated aqueous picric acid (Sigma-Aldrich cat #P6744). Sections were then dehydrated, and mounted using the CV Mount medium (Leica, cat #14046430011).\n(§3) A technician blinded to the source of each liver specimen performed histological examinations. Virtual slides were generated using the Pannoramic 250 scanner from 3D Histech. For each animal, a score summarizing the main histological lesions of NASH was attributed according to the NASH Clinical Research Network (Kleiner 2005, Brunt 1999). Briefly, steatosis, lobular inflammation and hepatocyte ballooning were scored. The NAFLD Activity Score (NAS) was established for each individual as the unweighted sum of the steatosis (0-3), lobular inflammation (0-3) and the ballooning (0-2) injury grading.\n(§4) Using Quant Center software (3D Histech, including Pattern Quant and Histo Quant modules), collagen-stained areas were quantified. Briefly, Pattern Quant was used to detect the tissue and measure its surface. Then, Histo Quant was used to detect the stained collagen content and measure its surface, based on a color threshold method. The fibrosis area was then expressed as the percentage of the collagen surface to the whole tissue per animal.\nThe hepatic collagen content was determined using the appropriate QuickZyme kit (Total collagen assay, cat #QZB-totcol2). The assay is based on the detection of hydroxyproline, which is a non-proteinogenic amino acid mainly found in the triple helix of collagen. […]"}, "[3]": {"test_system": "fibrosing NASH-model of rats fed a CDAA+1% cholesterol diet", "assay": "Chronic CDAA+1% cholesterol rat model: liver histology (picrosirius fibrosis surface, NASH lesions)", "type": "in vivo, Wistar rats", "conditions": "GFT505 3 mg/kg/d, OCA 10 mg/kg/d, alone or combined; 12 weeks in diet", "procedure": "(§5) The preventive effects of Elafibranor alone, OCA alone and the combination of both were assessed in a fibrosing NASH-model of rats fed a CDAA+1% cholesterol diet. 150-175 g male Wistar rats were fed a control (CSAA) diet, CDAA+1% cholesterol diet, or CDAA+1% cholesterol diet supplemented with Elafibranor 1, 3 and 10 mg/kg/day, OCA 10 and 30 mg/kg/day or combined drugs (Elafibranor 1, 3 and 10 mg/kg/day combined to OCA 10 mg/kg/day) for 12 weeks.\n(§6) The body weight and the food intake were monitored twice per week. On the last day of treatment, rats were sacrificed after a 6 h fasting period. The liver was rapidly excised for biochemical and histological studies.\nThe liver slices were first fixed for 12 hours in formalin 4% solution. Then, the liver pieces were washed 30 minutes in PBS, and dehydrated in ethanol solutions (successive baths at 70, 80, 95 and 100% ethanol). The liver pieces were incubated in three different baths of Xylene (Sigma-Aldrich cat #534056), followed by two baths in liquid paraffin (56° C.). Liver pieces were then put into racks that were gently filled with HISTOWAX to completely cover the tissue.\nThe paraffin blocks containing the tissue pieces were removed from the racks and stored at room temperature. The liver blocks were cut into 3 μm slices.\nLiver sections were deparaffinized, rehydrated and incubated for 3 minutes in Mayer's Hematoxylin (Microm, cat #F/C0303). Then, the liver sections were rinsed in water and incubated 1 minute in Eosin G (VWR, cat #1.09844.1000). Sections were rinsed in water then dehydrated, and mounted using the CV Mount medium (Leica, cat #14046430011).\nas §2\nas §3, with “hepatocytes” for “hepatocyte”, “(NAS score)” for “(NAS)”\nas §4"}, "[4]": {"test_system": "fibrosing NASH-model of rats fed a CDAA+1% cholesterol diet", "assay": "Chronic CDAA+1% cholesterol rat model: hepatic collagen content (hydroxyproline)", "type": "in vivo, Wistar rats", "conditions": "GFT505 3 mg/kg/d, OCA 10 mg/kg/d, alone or combined; 12 weeks in diet", "procedure": "as §5, §6\nThe hepatic collagen content was determined using the appropriate QuickZyme kit (Total collagen assay, cat #QZB-totcol2). The assay is based on the detection of hydroxyproline, which is a non-proteinogenic amino acid mainly found in the triple helix of collagen. Thus, hydroxyproline in tissue hydrolysates can be used as a direct measure of the amount of collagen present in the tissue (without discrimination between procollagen, mature collagen and collagen degradation products).\nComplete hydrolysis of tissue samples in 6M HCl at 95° C. is required before dosing the hydroxyproline. The assay results in the generation of a chromogen with a maximum absorbance at 570 nm. Results are expressed as mg of collagen/g of liver."}, "[5]": {"test_system": "fibrosing NASH-model of rats fed a CDAA+1% cholesterol diet", "assay": "Chronic CDAA+1% cholesterol rat model: hepatic gene expression (qPCR)", "type": "in vivo, Wistar rats", "conditions": "liver; GFT505 3 mg/kg/d, OCA 10 mg/kg/d, alone or combined; 12 weeks", "procedure": "as §5, §6\nTotal RNA was isolated from rat livers using RNeasy Mini Kit (Qiagen) following manufacturer's instructions. Total RNA were reverse transcribed into cDNA using M-MLV RT (Moloney Murine Leukemia Virus Reverse Transcriptase) (Invitrogen cat #28025) in 1×RT buffer (Invitrogen), 0.5 mM DTT (Invitrogen), 0.18 mM dNTPs (Promega), 200 ng pdN6 (Amersham) and 30 U of RNase inhibitor (Promega).\nQuantitative PCR was then carried out using the CFX96 TOUCH Real-Time PCR Detection System (Biorad). Briefly, the PCR reactions were performed in 96-WP format in 25 μl of total volume containing 1 μL of reverse transcription reaction, 0.5 μL of reverse and forward primers (10 pmol each), and 12.5 μl of 2×iQ SYBR Green Supermix (BioRad), using the following primer sequences:\nExpression levels were normalized using the expression of RPLP0 gene as a housekeeping gene of reference in samples. For each gene, the standard curves were drawn by selecting the best points (at least three points) in order to have PCR reaction efficiency close to 100% and a correlation coefficient close to 1. Expression levels were determined using the standard curve equation for both the housekeeping gene and the target gene (taking into account the specific PCR efficiency of each target gene)."}},
  "data": [
    {"smiles": "CCCCOCCOc1ccc(-c2ccc3c(c2)/C=C(/C(=O)Nc2ccc([S@@+]([O-])Cc4cncn4CCC)cc2)CCCN3CC(C)C)cc1", "note": "[CVC, Cenicriviroc, reference compound]", "values": [
      {"measurement": "antifibrotic activity (α-SMA), single agent", "setting": "[1]; 5 μM of CVC alone", "value": "does not show any antifibrotic activity"},
      {"measurement": "antifibrotic activity (α-SMA), single agent", "setting": "[1]; TGFβ1-activated hHSC, dose range", "value": "did not show a significant effect at all doses"}
    ]},
    {"smiles": "COc1ccccc1[C@H](Cn1c(=O)n(C(C)(C)C(=O)O)c(=O)c2c(C)c(-c3ncco3)sc21)OC1CCOCC1", "note": "[GS-0976, reference compound]", "values": [
      {"measurement": "effect on liver fat and body weight", "setting": "[2]; GS-0976 30 mg/kg/day alone", "value": "mild beneficial effect"}
    ]},
    {"smiles": "CC[C@H]1[C@@H](O)[C@@H]2[C@H](CC[C@]3(C)[C@@H]([C@H](C)CCC(=O)O)CC[C@@H]23)[C@@]2(C)CC[C@@H](O)C[C@@H]12", "note": "[OCA, obeticholic acid, reference compound]", "values": [
      {"measurement": "Fibrosis surface, percentage over the untreated CDAA + 1% cholesterol rats", "setting": "[3]", "value": "74% ± 45%"},
      {"measurement": "Hepatic collagen content, percentage over the untreated CDAA + 1% cholesterol rats", "setting": "[4]", "value": "67% ± 23%"},
      {"measurement": "CCR5 mRNA level (marker of inflammation), percentage over the untreated CDAA + 1% cholesterol rats", "setting": "[5]", "value": "81% ± 28%"},
      {"measurement": "TGFβ1 mRNA level, percentage over the untreated CDAA + 1% cholesterol rats", "setting": "[5]", "value": "110% ± 23%"},
      {"measurement": "TIMP1 mRNA level, percentage over the untreated CDAA + 1% cholesterol rats", "setting": "[5]", "value": "110% ± 43%"},
      {"measurement": "αSMA mRNA level, percentage over the untreated CDAA + 1% cholesterol rats", "setting": "[5]", "value": "109% ± 68%"}
    ]},
    {"smiles": "CN(C)c1cccc(-c2c3c(=O)n(-c4ccccc4Cl)[nH]c3cc(=O)n2C)c1", "note": "[GKT-831, 2-(2-chlorophenyl)-4-[3-(dimethylamino)phenyl]-5-methyl-1H-pyrazolo[4,3-c]pyridine-3,6(2H,5H)-dione, reference compound]", "values": [
      {"measurement": "effect on NASH and fibrosis", "setting": "[2]; GKT-831 60 mg/kg/day alone", "value": "no beneficial effect"}
    ]},
    {"smiles": "Cc1cc(F)c(C(=O)Nc2cccc(-c3nncn3C(C)C)n2)cc1-n1cnc(C2CC2)c1", "note": "[Selonsertib, reference compound]", "values": [
      {"measurement": "hepatic fibrosis (histology, hepatic collagen content, PIIINP and TIMP-1)", "setting": "[2]; elafibranor 3 mg/kg/day, selonsertib 30 mg/kg/day, alone or combined", "value": "improved hepatic fibrosis in this model, albeit to a minor extent than elafibranor"}
    ]}
  ]
}
